Measured values published in article PMC11530130, “Peripherally restricted PICK1 inhibitor mPD5 ameliorates pain behaviors in murine inflammatory and neuropathic pain models” (JCI Insight, 2024).
Values joined by “and” are separate entries in the source; they are usually repeats but may differ in a detail not shown here. Equal entries are not always repeated.

What was measured:
Assay type in all cases: in vivo, mouse
[1] = test system: naive mice; test: Capsaicin test (licking time); set-up: capsaicin-induced licking time, individual mice: unit not given here; conditions: for capsaicin-induced licking time, individual mice: female and male; for effect on capsaicin-induced licking time: naive mice, both sexes
Method: Naïve wildtype male and female mice (10 weeks of age) were habituated to handling and experimental set up for one week prior to data collection. […]
Mice were pretreated with 10 μmol/kg mPD5, 10 mg/kg morphine (RH Pharmacy, Denmark, Vnr. 475249), or PBS 45 min before habituation to observation container (glass cylinder surrounded by mirrors on 2 sides) for 15 min. Mice then received an intraplantar injection of 20 µl capsaicin (1.6 ug/paw) (sigma CAS Number:404-86-4, diluted with 1:1:8 solution of tween-20, 70% ethanol, and MilliQ water) in one hind paw and were reintroduced to the observation container. Mice were recorded for three min after i.pl. injection with capsaicin and euthanized the same day. Mice were scored manually for the amount of time spent paw licking within three min after capsaicin administration. […]
Females were weighed on a regular basis from removal of the males […]
Unless otherwise stated, all data were analysed using GraphPad Prism 9.4.1. and presented as mean +-SEM with the significance level set to p < 0.05. For locomotion and elevated plus maze, Ethovision XT 13 (Noldus) was used to track the distance travelled by each animal. For within group analysis (i.e., von Frey experiments), two-way ANOVA followed by Dunnett’s post hoc test was used. For between group analysis of multiple time points (i.e., locomotion experiments), two-way ANOVA was used without post hoc test due to lack of treatment significance in the ANOVA test. For the limb use experiment, data pre versus post treatment was analysed with a Kruskal Wallis test due to the non-parametric nature of the data. When analysing histograms of three groups or more (i.e., marble burying and elevated plus maze),

[2] = test system: mice, CIBP model (NCTC 2472 cell inoculation); test: CIBP model, limb use score; conditions: for limb use score (Fig S7B): CIBP mice, individual animals; for effect on limb-use score: CIBP, female mice
Method: (§1) solution (0.05 mg/kg) injected s.c. 30 min before surgery (10 μL/g). For surgery, mice were anaesthetised with ketamine (100 mg/kg, i.p.) and xylazine (10 mg/kg, i.p.) (volume 10 µL/g) with 100 μL of 1% xylocaine solution infiltrated at the site of the incision. The distal trifurcation of the sciatic nerve was identified, and the tibial and common peroneal branches were ligated with polypropylene nonabsorbable 6-0 sutures (Ethicon) and 1 mm was cut out, leaving the sural branch intact. The wound was closed with sutures, and the animals were allowed to recover and returned to their cages. Two subcutaneous injections of buprenorphine (0.05 mg/kg) were performed with an 8 to 12 hours delay decreasing pain due to the surgery […]
(§2) The remaining SNI pain experiments were performed in-house using the following procedure.
(§3) SNI surgery was performed on the left hindleg of C57BL/6J male and female mice (Janvier, France) under 2% isoflurane anaesthesia. Skin on the lateral surface was incised between hip and knee followed by lengthwise division of the biceps femoris muscle leading to exposure of the three branches of the sciatic nerve. Sural branch was left intact, while the peroneal and tibial branches were ligated with a single surgical knot and axotomized distally of the ligation.
(§4) Wounds were closed with surgical glue or medical clips and animals were monitored daily for signs of stress or discomfort, but in all cases recovered uneventfully.
(§5) Induction of Diabetic neuropathy (STZ model).
(§6) Diabetes was induced by a single i.p. injection of […] streptozocin (STZ) solution (100 μL/10 g, Sigma-Aldrich S0130, batch #WXBB7152V) in male seven-week-old C57BL/6J (Charles River) mice. Glycemia was tested before, and seven days after injection. All injected mice had blood glucose concentration >350 mg/dL from day seven and were used for analgesic testing of the compounds from day 14. One mouse had to be euthanized at seven days post injection. This experiment was performed by Phenotype Expertise, Marseilles, France - Pain and CNS behaviour CRO under supervision of Stéphane Gaillard, PhD (CEO).
(§7) Induction of cancer induced bone pain (CIBP model).
(§8) Osteosarcoma cell line NCTC 2472 (American Type Culture Collection, CCL-11TM) was cultured for two weeks prior to surgery in NCTC-135 medium (Sigma-Aldrich, Denmark) supplemented with sodium hydrogen carbonate and 10% equine serum (Sigma-Aldrich, Denmark). On the day of surgery, cells were washed with PBS and incubated with 3 mL trypsin-EDTA for five min followed by centrifugation (2800 rpm, 3 min). Supernatant was removed, and cell pellet resuspended in PBS to obtain a cell density of 10^7 cells/mL.
(§9) Two separate cohorts of female C3H/HeNHsd mice (Envigo, Netherlands) of 7-8 weeks, were anaesthetized with 6.25 mg/kg xylazine (Rompun vet, 20 mg/mL, Bayer, KVP Pharma + Veterinär Produkte GmbH, Germany, Batch: KV02BHF) and 43.75 mg/kg ketamine (Ketaminol vet, 100 mg/mL, MSD Animal Health, AN Boxmeer, The Netherlands, Batch:
(§10) A140A01) and received 1.0-1.2% isoflurane (1000 mg/g isoflurane, Attane vet, ScanVet, Piramal Critical Care Ltd., UK, Batch: G123J18B) during surgery. The mouse was placed on a 37 °C heating pad. Both hind legs were shaved, and a small horizontal incision was made under the knee followed by a vertical incision of approximately 0.5 cm until the patellar tendon was exposed. The patellar tendon was moved to the lateral side exposing the distal epiphysis of the femur. A hole was made in the middle of the distal epiphysis by gently pushing a 30 G needle (0.3x12 mm, 30 Gx1/2”, Luer-Lock, CHIRANA T. Injecta, CH30012) through the bone while rotating. The position of the needle was confirmed by X-ray imaging (IVIS Lumina XR Apparatus, Caliper Life Sciences, Belgium). Following resuspension, 10 μL, corresponding to […]
(§11) […] NCTC 2472 cells or PBS (sham mice), was injected in the bone marrow cavity with an insulin syringe (1 mL Luer, BD PlastipakTM, 303172) attached to a 30 G needle and left in the […]
(§12) femur for one min. […]

[3] = test system: mice, CIBP model (NCTC 2472 cell inoculation); test: Cancer-induced bone pain (CIBP) model, von Frey; conditions: for effect on PWT: CIBP, female mice
Method: as §1, §2, §3, §4, §5, §6, §7, §8, §9, §10, §11, §12

| SMILES | capsaicin-induced licking time, individual mice ([1]; 10 mg/kg) | effect on capsaicin-induced licking time ([1]; s.c. 10 mg/kg) | limb use score (Fig S7B) ([2]; BL1) | limb use score (Fig S7B) ([2]; BL2) | limb use score (Fig S7B) ([2]; Post (after treatment)) | limb use score (Fig S7B) ([2]; Pre (before treatment)) | effect on limb-use score ([2]; s.c. 5 mg/kg) | von Frey paw withdrawal threshold, individual animals (Fig 4C) ([3]; BL1 (baseline 1)) | von Frey paw withdrawal threshold, individual animals (Fig 4C) ([3]; BL2 (baseline 2)) | effect on PWT ([3]; s.c. 5 mg/kg) | von Frey paw withdrawal threshold, individual animals (Fig 4C) ([3]; Post (after treatment)) | von Frey paw withdrawal threshold, individual animals (Fig 4C) ([3]; Pre (before treatment)) | capsaicin-induced licking time, individual mice ([1]; 10 umol/kg, female mice) | capsaicin-induced licking time, individual mice ([1]; 10 umol/kg, male mice) | effect on capsaicin-induced licking time ([1]; s.c. 10 μmol/kg) | effect on limb-use score ([2]; s.c. 10 μmol/kg) | effect on PWT ([3]; s.c. 10 μmol/kg) |
| --- | --- | --- | --- | --- | --- | --- | --- | --- | --- | --- | --- | --- | --- | --- | --- | --- | --- |
| CN1CC[C@]23c4c5ccc(O)c4O[C@H]2[C@@H](O)C=C[C@H]3[C@H]1C5 [morphine] | 0 | significantly reduced the licking time | 4 | 4 | 3 (3×) and 1 (2×) and 2 (4×) and 0 | 2 (3×) and 1 (5×) and 0 (2×) | partial but significant increase | 1.5 and 0.8 and 0.6 and 1 (2×) and 0.9 and 1.3 and 2 and 1.7 and 1.2 | 2.9 and 1.1 and 0.8 and 2.6 and 1.3 (2×) and 1.9 and 2.1 (2×) and 1.2 | partial but significant increase | 1.1 (2×) and 1 (2×) and 1.2 (3×) and 0.9 and 1.3 (2×) | 0.6 (2×) and 0.2 (3×) and 0.4 (3×) and 0.5 and 0.3 | – | – | – | – | – |
| CCCCCCCCCCCCCC(=O)N(CCOCCOCCC(=O)N[C@@H](Cc1c[nH]cn1)C(=O)N[C@@H](Cc1c[nH]c2ccccc12)C(=O)N[C@@H](CC(C)C)C(=O)N[C@@H](CCCCN)C(=O)N[C@H](C(=O)O)C(C)C)CCOCCOCCC(=O)N[C@@H](Cc1c[nH]cn1)C(=O)N[C@@H](Cc1c[nH]c2ccccc12)C(=O)N[C@@H](CC(C)C)C(=O)N[C@@H](CCCCN)C(=O)N[C@H](C(=O)O)C(C)C [mPD5, myristoyl-NPEG4-(HWLKV)2] | – | – | – | – | – | – | – | – | – | – | – | – | 12.96 and 9.28 and 8.67 and 18.61 | 12.98 and 14.19 and 30.63 | no effect on time spent licking | no effect | no effect |
